Assay results taken from ChEMBL document CHEMBL4706583, “2-Anilinoquinoline based arylamides as broad spectrum anticancer agents with B-RAF/C-RAF kinase inhibitory effects: Design, synthesis, in vitro cell-based and oncogenic kinase assessments” (Eur J Med Chem, 2020).

How the values were obtained:
[1] = tested on: SR; assay: Growth inhibition of human SR cells measured after 48 hrs by SRB assay; type: functional
[2] = tested on: SW-620; assay: Growth inhibition of human SW-620 cells measured after 48 hrs by SRB assay; type: functional
[3] = tested on: SF-539; assay: Growth inhibition of human SF-539 cells measured after 48 hrs by SRB assay; type: functional
[4] = tested on: SNB-75; assay: Growth inhibition of human SNB-75 cells measured after 48 hrs by SRB assay; type: functional
[5] = tested on: UACC-62; assay: Growth inhibition of human UACC-62 cells measured after 48 hrs by SRB assay; type: functional
[6] = tested on: OVCAR-8; assay: Growth inhibition of human OVCAR-8 cells measured after 48 hrs by SRB assay; type: functional
[7] = tested on: SK-OV-3; assay: Growth inhibition of human SK-OV-3 cells measured after 48 hrs by SRB assay; type: functional
[8] = tested on: ACHN; assay: Growth inhibition of human ACHN cells measured after 48 hrs by SRB assay; type: functional
[9] = Cytotoxicity against human L132 cells assessed as cell viability at 1 uM measured after 48 hrs by EZ-Cytox assay relative to control; type: cell-based; details: read-out: Activity
[10] = Cytotoxicity against African green monkey Vero cells assessed as cell viability at 3 uM measured after 48 hrs by EZ-Cytox assay relative to control; type: cell-based; details: chlorocebus sabaeus, read-out: Activity
[11] = tested on: HCT-116; assay: Cell cycle arrest in human HCT-116 cells assessed as increase in G0/G1-phase accumulation measured after 24 to 48 hrs by propidium iodide staining based flow cytometry; type: functional; details: dose 1.25-5 µM, time 24-48 hrs
[12] = tested on: HCT-116; assay: Cell cycle arrest in human HCT-116 cells assessed as accumulation at sub-G1 phase at 1.25 uM measured after 24 hrs by propidium iodide staining based flow cytometry (reference value: 8.7%); type: functional
[13] = tested on: HCT-116; assay: Cell cycle arrest in human HCT-116 cells assessed as accumulation at sub-G1 phase at 2.5 uM measured after 24 hrs by propidium iodide staining based flow cytometry (reference value: 8.7%); type: functional
[14] = tested on: HCT-116; assay: Cell cycle arrest in human HCT-116 cells assessed as accumulation at G1/G0 phase at 5 uM measured after 24 hrs by propidium iodide staining based flow cytometry (reference value: 65%); type: functional
[15] = tested on: HCT-116; assay: Cell cycle arrest in human HCT-116 cells assessed as accumulation at S phase at 1.25 uM measured after 24 hrs by propidium iodide staining based flow cytometry (reference value: 7.2%); type: functional
[16] = tested on: HCT-116; assay: Cell cycle arrest in human HCT-116 cells assessed as accumulation at S phase at 2.5 uM measured after 24 hrs by propidium iodide staining based flow cytometry (reference value: 7.2%); type: functional
[17] = tested on: HCT-116; assay: Cell cycle arrest in human HCT-116 cells assessed as accumulation at S phase at 5 uM measured after 24 hrs by propidium iodide staining based flow cytometry (reference value: 7.2%); type: functional
[18] = tested on: HCT-116; assay: Cell cycle arrest in human HCT-116 cells assessed as accumulation at G2/M phase at 1.25 uM measured after 24 hrs by propidium iodide staining based flow cytometry (reference value: 19.2%); type: functional
[19] = tested on: HCT-116; assay: Cell cycle arrest in human HCT-116 cells assessed as accumulation at G2/M phase at 2.5 uM measured after 24 hrs by propidium iodide staining based flow cytometry (reference value: 19.2%); type: functional
[20] = tested on: HCT-116; assay: Induction of apoptosis in human HCT-116 cells assessed as late apoptotic cells at 1.25 uM measured after 24 hrs by Annexin-V Alexa Fluor488/propidium iodide staining based flow cytometry (reference value: 1%); type: functional
[21] = tested on: HCT-116; assay: Induction of apoptosis in human HCT-116 cells assessed as early apoptotic cells at 2.5 uM measured after 24 hrs by Annexin-V Alexa Fluor488/propidium iodide staining based flow cytometry (reference value: 6.3%); type: functional
[22] = tested on: HCT-116; assay: Induction of apoptosis in human HCT-116 cells assessed as necrotic cells at 5 uM measured after 24 hrs by Annexin-V Alexa Fluor488/propidium iodide staining based flow cytometry (reference value: 4.6%); type: functional
[23] = target: T1, RAF proto-oncogene serine/threonine-protein kinase (Homo sapiens, UniProt P04049); assay: Inhibition of human CRAF using MEK1 (K97R) as substrate in presence of [gamma-33P]ATP by scintillation counting method
[24] = target: T2, High affinity nerve growth factor receptor (Homo sapiens, UniProt P04629); assay: Inhibition of human TRKA using poly[Glu:Tyr] (4:1) as substrate in presence of [gamma-33P]ATP by scintillation counting method
Target sequence in this assay (P04629 whole entry): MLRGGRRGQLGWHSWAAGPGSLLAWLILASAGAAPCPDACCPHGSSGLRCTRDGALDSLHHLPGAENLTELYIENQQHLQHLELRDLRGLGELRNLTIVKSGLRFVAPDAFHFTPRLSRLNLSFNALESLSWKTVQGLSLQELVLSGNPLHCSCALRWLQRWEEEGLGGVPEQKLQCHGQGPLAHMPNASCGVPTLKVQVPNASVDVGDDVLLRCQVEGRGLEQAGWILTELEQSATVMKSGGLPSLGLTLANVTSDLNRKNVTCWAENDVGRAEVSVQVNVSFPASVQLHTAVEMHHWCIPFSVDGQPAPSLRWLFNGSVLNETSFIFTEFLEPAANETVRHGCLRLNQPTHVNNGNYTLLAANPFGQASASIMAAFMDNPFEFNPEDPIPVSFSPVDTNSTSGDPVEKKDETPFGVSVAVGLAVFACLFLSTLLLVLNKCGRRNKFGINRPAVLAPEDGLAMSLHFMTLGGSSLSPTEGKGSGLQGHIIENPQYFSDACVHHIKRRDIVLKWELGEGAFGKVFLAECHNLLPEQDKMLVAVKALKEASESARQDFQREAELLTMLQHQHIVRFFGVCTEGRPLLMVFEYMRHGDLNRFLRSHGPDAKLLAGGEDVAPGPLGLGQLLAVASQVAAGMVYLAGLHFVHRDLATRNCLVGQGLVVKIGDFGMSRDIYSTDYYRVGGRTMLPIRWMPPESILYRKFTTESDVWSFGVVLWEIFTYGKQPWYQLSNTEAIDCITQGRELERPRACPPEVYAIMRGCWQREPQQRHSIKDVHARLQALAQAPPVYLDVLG

[25] = tested on: HCT-116; assay: Cell cycle arrest in human HCT-116 cells assessed as accumulation at sub-G1 phase at 2.5 uM measured after 48 hrs by propidium iodide staining based flow cytometry (reference value: 17%); type: functional
[26] = tested on: HCT-116; assay: Cell cycle arrest in human HCT-116 cells assessed as accumulation at sub-G1 phase at 5 uM measured after 48 hrs by propidium iodide staining based flow cytometry (reference value: 17%); type: functional
[27] = tested on: HCT-116; assay: Cell cycle arrest in human HCT-116 cells assessed as accumulation at G1/G0 phase at 1.25 uM measured after 48 hrs by propidium iodide staining based flow cytometry (reference value: 52.2%); type: functional
[28] = tested on: HCT-116; assay: Cell cycle arrest in human HCT-116 cells assessed as accumulation at S phase at 1.25 uM measured after 48 hrs by propidium iodide staining based flow cytometry (reference value: 10.4%); type: functional
[29] = tested on: HCT-116; assay: Cell cycle arrest in human HCT-116 cells assessed as accumulation at S phase at 2.5 uM measured after 48 hrs by propidium iodide staining based flow cytometry (reference value: 10.4%); type: functional
[30] = tested on: HCT-116; assay: Cell cycle arrest in human HCT-116 cells assessed as accumulation at G2/M phase at 5 uM measured after 48 hrs by propidium iodide staining based flow cytometry (reference value: 20.4%); type: functional
[31] = target: Serine/threonine-protein kinase B-raf (Homo sapiens, UniProt P15056); assay: Inhibition of human BRAF at 10 uM using MEK1 (K97R) as substrate in presence of [gamma-33P]ATP by scintillation counting method relative to control
[32] = tested on: Serine/threonine-protein kinase B-raf (Homo sapiens), P15056 [V600E]; assay: Inhibition of human BRAF V600E mutant at 10 uM using MEK1 (K97R) as substrate in presence of [gamma-33P]ATP by scintillation counting method relative to control
[33] = target: Epithelial discoidin domain-containing receptor 1 (Homo sapiens, UniProt Q08345); assay: Inhibition of human DDR1 at 10 uM using KKSRGDYMTMQIG as substrate in presence of [gamma-33P]ATP by scintillation counting method relative to control
[34] = target: T1, RAF proto-oncogene serine/threonine-protein kinase; assay: Inhibition of human CRAF at 10 uM using MEK1 (K97R) as substrate in presence of [gamma-33P]ATP by scintillation counting method relative to control
[35] = target: T2, High affinity nerve growth factor receptor; assay: Inhibition of human TRKA at 10 uM using poly[Glu:Tyr] (4:1) as substrate in presence of [gamma-33P]ATP by scintillation counting method relative to control
Target sequence in this assay (P04629 33-796 limits assumed): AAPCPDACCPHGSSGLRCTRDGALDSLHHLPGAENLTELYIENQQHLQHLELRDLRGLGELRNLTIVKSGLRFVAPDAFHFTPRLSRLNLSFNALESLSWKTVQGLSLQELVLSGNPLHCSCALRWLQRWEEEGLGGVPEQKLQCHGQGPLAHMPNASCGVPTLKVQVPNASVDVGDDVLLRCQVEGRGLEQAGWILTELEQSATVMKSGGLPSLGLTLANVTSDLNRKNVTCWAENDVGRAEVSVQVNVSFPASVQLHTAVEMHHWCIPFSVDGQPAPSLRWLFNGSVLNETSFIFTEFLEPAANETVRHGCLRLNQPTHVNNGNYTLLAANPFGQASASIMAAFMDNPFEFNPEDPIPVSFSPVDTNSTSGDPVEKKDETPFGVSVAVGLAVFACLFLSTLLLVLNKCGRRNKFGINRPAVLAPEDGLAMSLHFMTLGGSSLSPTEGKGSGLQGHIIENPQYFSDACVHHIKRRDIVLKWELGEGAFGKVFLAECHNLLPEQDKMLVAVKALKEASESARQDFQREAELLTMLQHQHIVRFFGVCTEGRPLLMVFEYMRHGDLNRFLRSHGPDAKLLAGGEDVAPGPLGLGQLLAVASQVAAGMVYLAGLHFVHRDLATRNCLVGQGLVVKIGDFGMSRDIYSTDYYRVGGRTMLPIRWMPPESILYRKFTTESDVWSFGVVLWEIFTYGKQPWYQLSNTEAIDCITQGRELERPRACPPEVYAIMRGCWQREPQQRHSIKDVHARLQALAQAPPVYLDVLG

[36] = target: Discoidin domain-containing receptor 2 (Homo sapiens) (UniProt Q16832); assay: Inhibition of human DDR2 at 10 uM using KKSRGDYMTMQIG as substrate in presence of [gamma-33P]ATP by scintillation counting method relative to control
Chain of Discoidin domain-containing receptor 2 (Homo sapiens) (Q16832 whole entry, the tested form may be a part): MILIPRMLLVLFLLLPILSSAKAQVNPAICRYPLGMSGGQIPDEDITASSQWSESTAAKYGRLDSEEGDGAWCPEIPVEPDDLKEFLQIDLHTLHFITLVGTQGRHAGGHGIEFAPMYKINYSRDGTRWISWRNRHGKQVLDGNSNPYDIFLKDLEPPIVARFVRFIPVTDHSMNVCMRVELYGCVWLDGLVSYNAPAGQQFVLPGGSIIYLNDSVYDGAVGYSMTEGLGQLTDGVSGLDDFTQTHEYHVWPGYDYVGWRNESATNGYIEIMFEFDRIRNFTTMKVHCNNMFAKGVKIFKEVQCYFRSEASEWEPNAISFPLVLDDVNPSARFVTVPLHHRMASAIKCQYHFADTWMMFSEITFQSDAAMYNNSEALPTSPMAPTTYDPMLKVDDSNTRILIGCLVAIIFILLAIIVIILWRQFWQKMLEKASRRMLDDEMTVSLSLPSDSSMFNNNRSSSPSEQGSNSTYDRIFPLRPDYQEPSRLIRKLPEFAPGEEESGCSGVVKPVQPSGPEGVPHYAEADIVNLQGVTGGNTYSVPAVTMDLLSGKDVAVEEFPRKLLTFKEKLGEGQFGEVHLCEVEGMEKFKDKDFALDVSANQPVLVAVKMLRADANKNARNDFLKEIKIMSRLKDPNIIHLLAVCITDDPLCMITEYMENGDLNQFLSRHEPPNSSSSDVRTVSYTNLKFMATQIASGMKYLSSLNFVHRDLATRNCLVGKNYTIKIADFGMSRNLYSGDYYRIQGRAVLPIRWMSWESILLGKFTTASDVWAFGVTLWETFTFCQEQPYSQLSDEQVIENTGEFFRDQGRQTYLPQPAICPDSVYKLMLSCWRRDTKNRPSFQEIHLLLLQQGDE

T1 sequence (P04049 whole entry): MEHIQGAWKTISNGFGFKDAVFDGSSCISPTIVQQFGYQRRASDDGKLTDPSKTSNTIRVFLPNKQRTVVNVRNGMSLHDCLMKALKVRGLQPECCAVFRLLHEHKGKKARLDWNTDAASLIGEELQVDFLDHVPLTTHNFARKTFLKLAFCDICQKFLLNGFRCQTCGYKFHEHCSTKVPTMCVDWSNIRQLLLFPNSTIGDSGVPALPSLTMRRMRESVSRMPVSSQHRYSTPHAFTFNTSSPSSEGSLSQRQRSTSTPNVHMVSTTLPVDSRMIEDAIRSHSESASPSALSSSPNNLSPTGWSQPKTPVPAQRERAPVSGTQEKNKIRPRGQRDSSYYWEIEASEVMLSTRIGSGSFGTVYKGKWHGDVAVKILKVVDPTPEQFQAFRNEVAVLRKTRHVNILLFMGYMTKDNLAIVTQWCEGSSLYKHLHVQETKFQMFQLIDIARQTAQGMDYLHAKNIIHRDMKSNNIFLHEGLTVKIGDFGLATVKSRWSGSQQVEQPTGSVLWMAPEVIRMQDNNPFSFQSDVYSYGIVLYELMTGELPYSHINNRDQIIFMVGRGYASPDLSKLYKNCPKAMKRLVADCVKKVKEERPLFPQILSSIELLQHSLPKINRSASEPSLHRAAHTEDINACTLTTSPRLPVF
Chain of Serine/threonine-protein kinase B-raf (P15056 whole entry): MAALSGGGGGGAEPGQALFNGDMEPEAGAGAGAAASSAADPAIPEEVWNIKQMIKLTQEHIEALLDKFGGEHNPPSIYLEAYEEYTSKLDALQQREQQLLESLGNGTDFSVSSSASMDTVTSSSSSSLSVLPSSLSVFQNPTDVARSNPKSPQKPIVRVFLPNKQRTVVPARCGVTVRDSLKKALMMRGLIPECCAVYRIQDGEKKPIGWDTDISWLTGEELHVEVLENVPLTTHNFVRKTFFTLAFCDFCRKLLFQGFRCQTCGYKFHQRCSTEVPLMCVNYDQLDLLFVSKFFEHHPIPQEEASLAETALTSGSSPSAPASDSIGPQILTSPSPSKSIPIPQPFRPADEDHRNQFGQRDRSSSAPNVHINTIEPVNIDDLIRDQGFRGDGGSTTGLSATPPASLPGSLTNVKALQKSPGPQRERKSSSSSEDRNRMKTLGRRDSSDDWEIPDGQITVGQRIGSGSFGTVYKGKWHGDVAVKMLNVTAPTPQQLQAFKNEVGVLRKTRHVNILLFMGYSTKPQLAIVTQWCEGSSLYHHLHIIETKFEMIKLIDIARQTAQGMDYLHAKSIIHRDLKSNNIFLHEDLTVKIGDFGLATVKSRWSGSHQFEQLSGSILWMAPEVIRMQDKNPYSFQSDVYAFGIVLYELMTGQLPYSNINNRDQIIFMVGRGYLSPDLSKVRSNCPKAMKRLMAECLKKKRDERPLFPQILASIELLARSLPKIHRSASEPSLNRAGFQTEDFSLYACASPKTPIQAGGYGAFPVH
Chain of Epithelial discoidin domain-containing receptor 1 (Q08345 whole entry, the tested form may be a part): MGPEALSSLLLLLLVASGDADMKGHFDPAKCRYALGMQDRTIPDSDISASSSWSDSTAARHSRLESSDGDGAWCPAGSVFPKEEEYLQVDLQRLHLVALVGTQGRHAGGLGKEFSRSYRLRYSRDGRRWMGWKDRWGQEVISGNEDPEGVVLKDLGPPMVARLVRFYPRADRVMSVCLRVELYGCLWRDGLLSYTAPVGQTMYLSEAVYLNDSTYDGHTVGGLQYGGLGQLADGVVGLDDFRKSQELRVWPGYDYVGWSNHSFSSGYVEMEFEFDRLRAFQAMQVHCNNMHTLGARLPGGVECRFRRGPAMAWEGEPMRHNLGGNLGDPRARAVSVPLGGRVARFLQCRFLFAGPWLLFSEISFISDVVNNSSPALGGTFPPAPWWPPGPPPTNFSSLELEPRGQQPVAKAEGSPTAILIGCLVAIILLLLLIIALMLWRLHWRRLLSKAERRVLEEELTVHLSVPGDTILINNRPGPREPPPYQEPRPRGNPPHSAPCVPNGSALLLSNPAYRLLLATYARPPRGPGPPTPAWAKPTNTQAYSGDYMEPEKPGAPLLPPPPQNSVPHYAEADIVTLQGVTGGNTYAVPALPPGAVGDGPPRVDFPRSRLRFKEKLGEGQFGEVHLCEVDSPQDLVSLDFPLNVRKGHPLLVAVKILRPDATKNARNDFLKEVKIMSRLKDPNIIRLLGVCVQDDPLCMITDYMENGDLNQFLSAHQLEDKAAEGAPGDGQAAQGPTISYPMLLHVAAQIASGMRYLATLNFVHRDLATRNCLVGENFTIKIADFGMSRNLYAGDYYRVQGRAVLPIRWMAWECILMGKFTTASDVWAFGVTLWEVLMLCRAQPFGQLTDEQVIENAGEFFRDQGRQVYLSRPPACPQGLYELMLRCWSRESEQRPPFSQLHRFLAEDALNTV
Chain of Serine/threonine-protein kinase B-raf (Homo sapiens), P15056 [V600E] (P15056 whole entry V600E, the tested form may be a part): as the sequence (P15056 whole entry) above, with V600E counted along it

Row | Compound | GI50 [1] | GI50 [2] | GI50 [3] | GI50 [4] | GI50 [5] | GI50 [6] | GI50 [7] | GI50 [8] | viability at 48 h, 1 µM [9] | viability at 48 h, 3 µM [10] | Activity [11] | Activity [20] | Activity [21] | Activity [22] | IC50 [23] | IC50 [24] | also measured
1 | COc1cccc2nc(Nc3cccc(NC(=O)c4ccc(N5CCN(C)CC5)c(C(F)(F)F)c4)c3)ccc12 | 1130 nM | 968 nM | 895 nM | 695 nM | 1060 nM | 1690 nM | 1730 nM | 1530 nM | 97% | 86.9% | Dose-dependent effect | 1.7% | 6.1% | 4.8% | 370 nM | 34000 nM | Activity [12]: 9.6%; Activity [13]: 7.9%; Activity [14]: 71%; Activity [15]: 8.2%; Activity [16]: 7.3%; Activity [17]: 6.3%; Activity [18]: 15.6%; Activity [19]: 15.1%
2 | CCN1CCN(c2cc(C(=O)Nc3cccc(Nc4ccc5c(OC)cccc5n4)c3)cc(C(F)(F)F)c2)CC1 | 883 nM | 3670 nM | 3280 nM | 1050 nM | 1500 nM | 1970 nM | 4600 nM | 1210 nM | 91.2% | 76.8% | Dose-dependent effect | 0.6% | 15.6% | 0.6% | 229 nM | 1670 nM | Activity [25]: 20.9%; Activity [26]: 14.1%; Activity [27]: 54.7%; Activity [28]: 8.8%; Activity [29]: 9.2%; Activity [30]: 14.4%; inhibition [31]: 94.4%; inhibition [32]: 94.4%; inhibition [33]: 94.5%; inhibition [34]: 94.4%; inhibition [35]: 88%; inhibition [36]: 67.5%
